Data: US4002674A (priority 1974, dated 1977)
Counter-ions that a name gives are not always drawn.

Tests used:
[1] = test system: Newcastle disease virus (NDV); test: microbe, parasite or virus in culture; format: cell-based, Newcastle disease virus; chick embryo tissue culture; conditions: for inhibition at 4 µg/mL / inhibition at 8 µg/mL / inhibition at 16 µg/mL: avian paramyxovirus 1, in Gallus gallus, 48 h, read-out: % Inhibition of NDV Multiplications
[2] = antiviral activity in vivo; conditions: no test details given

Structure (SMILES)	inhibition at 4 µg/mL [1] [%]	inhibition at 8 µg/mL [1] [%]	inhibition at 16 µg/mL [1] [%]	antiviral activity compared with amantadine hydrochloride ([1]; in vitro, NDV, versus amantadine hydrochloride)	virus replication in the tissue culture ([1]; tissue culture containing above 4 μg/ml)	antiviral activity in vivo [2]
NC12CC3CC(CC(C3)C1)C2 [Amantadine . HCl, amantadine hydrochloride, reference compound]	0	0	0	–	–	–
COC(=O)C12CCCC3CC(CCC31)C2 (stereo not drawn) [VI, Methyl 4-homoisotwistane-3-carboxylate]	0	91.2	99.4	extremely superior	almost completely inhibited	potent antiviral activity in vivo
